Data taken from patent US10414769B2, “5,8-dimethyl-9-phenyl-5,8-dihydro-6H-pyrazolo[3,4-h]quinazolin-2-yl)-(1H-pyrazol-3-yl)-amines as IGF-1R/IR inhibitors” (Boehringer Ingelheim International GmbH, priority 2015, dated 2019).

Key:
Format in all cases: biochemical
EPHB2 = target: T1, EPHB2 (Homo sapiens, UniProt P29323); assay: Z'-LYTE kinase selectivity assay EPHB2
T1 construct: purchased Life Technologies PV 3625
T1 sequence (P29323 19-1055): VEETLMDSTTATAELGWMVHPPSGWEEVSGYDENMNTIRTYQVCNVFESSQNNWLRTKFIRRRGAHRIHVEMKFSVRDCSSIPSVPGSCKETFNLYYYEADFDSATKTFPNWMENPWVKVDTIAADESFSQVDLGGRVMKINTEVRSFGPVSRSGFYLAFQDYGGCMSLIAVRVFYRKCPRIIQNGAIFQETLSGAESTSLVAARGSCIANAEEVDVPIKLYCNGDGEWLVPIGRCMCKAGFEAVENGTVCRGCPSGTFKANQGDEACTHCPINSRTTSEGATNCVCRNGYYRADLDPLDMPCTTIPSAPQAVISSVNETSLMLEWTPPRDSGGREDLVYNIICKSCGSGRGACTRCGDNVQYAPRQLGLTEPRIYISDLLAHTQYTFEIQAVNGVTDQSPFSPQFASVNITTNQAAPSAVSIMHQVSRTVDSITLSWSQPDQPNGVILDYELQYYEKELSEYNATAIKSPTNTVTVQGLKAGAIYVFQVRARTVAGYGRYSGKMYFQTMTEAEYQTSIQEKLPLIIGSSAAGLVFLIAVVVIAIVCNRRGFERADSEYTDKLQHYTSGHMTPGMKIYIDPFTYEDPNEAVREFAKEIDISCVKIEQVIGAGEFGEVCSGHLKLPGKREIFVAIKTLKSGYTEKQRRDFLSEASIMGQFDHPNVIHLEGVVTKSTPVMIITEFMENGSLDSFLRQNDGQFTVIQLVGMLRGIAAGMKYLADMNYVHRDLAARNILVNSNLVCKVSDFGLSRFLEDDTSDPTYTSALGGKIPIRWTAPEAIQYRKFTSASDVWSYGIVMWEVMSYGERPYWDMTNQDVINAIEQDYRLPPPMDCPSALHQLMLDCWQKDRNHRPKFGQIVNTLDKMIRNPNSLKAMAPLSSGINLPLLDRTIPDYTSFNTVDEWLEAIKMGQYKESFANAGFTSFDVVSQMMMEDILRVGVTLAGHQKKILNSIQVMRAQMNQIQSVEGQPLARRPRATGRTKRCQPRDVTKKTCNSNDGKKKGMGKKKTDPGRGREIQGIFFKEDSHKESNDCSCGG
Excerpt: (§1) In order to compare the kinase selectivity of compounds (I) according to the invention with known prior art compounds the commercially provided SelectScreen® Kinase Profiling Service (Z′-LYTE®) was used (Life Technologies GmbH, Darmstadt, Germany) to investigate the ability of the compounds to inhibit a number of different, representatively selected human kinases. Further details regarding this service are available on the Life Technologies website at
(§2) The Z′-LYTE® biochemical assay employs a fluorescence-based, coupled-enzyme format and is based on the differential sensitivity of phosphorylated and non-phosphorylated peptides to proteolytic cleavage. The peptide substrate is labeled with two fluorophores—one at each end—that make up a FRET pair.
(§3) In the primary reaction, the kinase transfers the gamma-phosphate of ATP to a single tyrosine, serine or threonine residue in a synthetic FRET-peptide. In the secondary reaction, a site-specific protease recognizes and cleaves non-phosphorylated FRET-peptides. Phosphorylation of FRET-peptides suppresses cleavage by the Development Reagent. Cleavage disrupts FRET between the donor (i.e., coumarin) and acceptor (i.e., fluorescein) fluorophores on the FRET-peptide, whereas uncleaved, phosphorylated FRET-peptides maintain FRET. A ratiometric method, which calculates the ratio (the Emission Ratio) of donor emission to acceptor emission after excitation of the donor fluorophore at 400 nm, is used to quantitate reaction progress, as shown in the equation below.
(§4) The Test Compounds are screened at 1 μM.
(§5) The 2×EPHB2 (# PV 3625)/Tyr 02 (Z′-LYTE® Kinase Assay Kit—Tyrosine 2 Peptide, # PV 3191) mixture is prepared in 50 mM HEPES pH 7.5, 0.01% BRIJ-35, 10 mM MgCl2, 1 mM EGTA. The final 10 μL Kinase Reaction consists of 0.55-36 ng EPHB2 and 2 μM Tyr 02 in 50 mM HEPES pH 7.5, 0.01% BRIJ-35, 10 mM MgCl2, 1 mM EGTA. After the 1 hour Kinase Reaction incubation, 5 μL of a 1:128 dilution of Development Reagent A is added.

LCK = target: T2, LCK (Homo sapiens, UniProt P06239); assay: Z'-LYTE kinase selectivity assay LCK
T2 construct: purchased Life Technologies P 3043
Excerpt: as §1, §2, §3, §4
as §5, with “2×LCK” for “2×EPHB2”, “P 3043)/Tyr” for “PV 3625)/Tyr”, “2.46-50” for “0.55-36”, “LCK” for “EPHB2”

CHEK1 (CHK1) = target: T3, CHEK1 (CHK1) (Homo sapiens, UniProt O14757); assay: Z'-LYTE kinase selectivity assay CHEK1
T3 construct: purchased Life Technologies P 3040
T3 sequence (O14757 1-476): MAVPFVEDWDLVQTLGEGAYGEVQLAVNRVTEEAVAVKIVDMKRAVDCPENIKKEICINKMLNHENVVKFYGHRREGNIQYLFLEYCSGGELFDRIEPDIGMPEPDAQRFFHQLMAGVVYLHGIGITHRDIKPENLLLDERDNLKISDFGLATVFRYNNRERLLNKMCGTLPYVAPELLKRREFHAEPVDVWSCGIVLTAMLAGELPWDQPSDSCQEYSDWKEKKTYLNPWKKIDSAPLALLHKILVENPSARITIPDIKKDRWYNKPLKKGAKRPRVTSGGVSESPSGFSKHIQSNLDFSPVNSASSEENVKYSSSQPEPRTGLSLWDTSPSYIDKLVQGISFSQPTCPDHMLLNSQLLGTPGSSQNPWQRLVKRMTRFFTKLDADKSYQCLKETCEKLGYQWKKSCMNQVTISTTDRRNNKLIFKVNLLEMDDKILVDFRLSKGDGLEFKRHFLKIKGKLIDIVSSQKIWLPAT
Excerpt: as §1, §2, §3, §4
The 2×CHEK1 (CHK1) (# P 3040)/Ser/Thr 19 (Z′-LYTE® Kinase Assay Kit—Ser/Thr 19 Peptide, # PV 4529) mixture is prepared in 50 mM HEPES pH 7.5, 0.01% BRIJ-35, 10 mM MgCl2, 1 mM EGTA. The final 10 μL Kinase Reaction consists of 2.04-35 ng CHEK1 (CHK1) and 2 μM Ser/Thr 19 in 50 mM HEPES pH 7.5, 0.01% BRIJ-35, 10 mM MgCl2. 1 mM EGTA. After the 1 hour Kinase Reaction incubation, 5 μL of a 1:256 dilution of Development Reagent A is added.

T2 sequence (P06239 whole entry): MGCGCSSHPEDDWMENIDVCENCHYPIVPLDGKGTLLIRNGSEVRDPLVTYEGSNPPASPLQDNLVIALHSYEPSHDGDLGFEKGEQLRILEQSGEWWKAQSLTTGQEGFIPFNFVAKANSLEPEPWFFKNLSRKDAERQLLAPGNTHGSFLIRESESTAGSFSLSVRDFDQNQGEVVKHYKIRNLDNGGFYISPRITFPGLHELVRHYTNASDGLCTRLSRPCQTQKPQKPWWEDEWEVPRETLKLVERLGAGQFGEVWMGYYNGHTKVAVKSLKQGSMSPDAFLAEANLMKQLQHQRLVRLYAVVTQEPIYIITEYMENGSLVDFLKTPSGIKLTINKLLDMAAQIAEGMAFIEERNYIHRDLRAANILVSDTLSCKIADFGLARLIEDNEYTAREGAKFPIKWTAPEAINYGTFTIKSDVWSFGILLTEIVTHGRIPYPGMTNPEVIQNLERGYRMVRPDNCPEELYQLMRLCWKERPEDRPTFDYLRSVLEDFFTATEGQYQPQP

SMILES | inhibition at 1 µM (EPHB2) [%] | inhibition at 1 µM (LCK) [%] | inhibition at 1 µM (CHEK1 (CHK1)) [%]
C[C@@H]1Cc2nn(C)c(-c3ccccc3)c2-c2nc(Nc3ccn(CCN4CCN(C)CC4)n3)ncc21 [Compound I-1] | 64 | 85 | 11
C[C@@H]1Cc2nn(C)c(-c3ccccc3)c2-c2nc(Nc3ccn(CCN4CCN(CC(=O)OC5CCOCC5)CC4)n3)ncc21 [Compound I-8] | 62 | 59 | 17
C[C@@H]1Cc2nn(C)c(-c3ccccc3)c2-c2nc(Nc3ccn(CCN4CCN(CC(C)(C)O)CC4)n3)ncc21 [Compound I-3] | 77 | 82 | 31
CC(O)CN1CCN(CCn2ccc(Nc3ncc4c(n3)-c3c(nn(C)c3-c3ccccc3)C[C@H]4C)n2)CC1 (stereo partly drawn) [Compound I-7] | 82 | 84 | 38
C[C@@H]1Cc2nn(C)c(-c3ccccc3)c2-c2nc(Nc3ccn(CCN4CCOCC4)n3)ncc21 [Compound I-2] | 68 | 78 | 23
C[C@@H]1Cc2nn(C)c(-c3ccccc3)c2-c2nc(Nc3ccn(CCN4CCN(CC5CCCO5)CC4)n3)ncc21 (stereo partly drawn) [Compound I-9] | 73 | 80 | 26
COCCN1CCN(CCn2ccc(Nc3ncc4c(n3)-c3c(nn(C)c3-c3ccccc3)C[C@H]4C)n2)CC1 [Compound I-11] | 56 | 76 | 25
